Entries after “also recorded” stand apart in the source; their conditions may differ. Where a name gives a salt, the structure may show the parent alone. Read-outs that look alike come from different tables or passages of the source.
Tests used:
SARS-CoV-2 [1] = experiment: microbe, parasite or virus in culture; format: cell-based; conditions: for protective effect against SARS-CoV-2 infectivity (in words): preincubation 2 h, crystal violet 72 h after infection; for inhibition at 100 µM: Severe acute respiratory syndrome coronavirus 2, Vero
bovine thrombin = bovine thrombin (Bos taurus, UniProt P00735); experiment: Thrombin inhibition assay (chromogenic substrate S-2238); format: biochemical
[2] = Cytotoxicity assay (XTT) on VERO cells; format: cell-based, African green monkey; conditions: African green monkey
VERO cells = experiment: Cytotoxicity assay (XTT) on VERO cells; format: cell-based, African green monkey; conditions: 72 h, 100 µM
SARS-CoV-2 [3] = format: cell-based; conditions: 100 µM, virus coincubated with compound before infecting VERO cells
[4] = target: recombinant human factor Xa (Homo sapiens, UniProt P00742); experiment: Factor Xa inhibition assay (chromogenic substrate S-2765); format: biochemical
[5] = Stability in pooled human serum (RP-HPLC); format: in vitro ADME; conditions: for residual, % of the starting concentration: human serum
[6] = Stability in phosphate buffer solution pH 7.4 (RP-HPLC); format: physicochemical; conditions: for residual, % of the starting concentration: pH 7.4 buffer
[7] = Cheng-Prousoff from IC50, mean of three measurements, read-out: Enzyme Inhibition, Ki, Thrombin
[8] = Cheng-Prousoff from IC50, mean of three measurements, read-out: Enzyme Inhibition, Ki, Factor Xa
[9] = VERO cells, confluent monolayers (mock-infected), 72 h, XTT, read-out: VERO Cells Toxicity, CC50

recombinant human factor Xa, sequence (P00742 235-488 limits assumed): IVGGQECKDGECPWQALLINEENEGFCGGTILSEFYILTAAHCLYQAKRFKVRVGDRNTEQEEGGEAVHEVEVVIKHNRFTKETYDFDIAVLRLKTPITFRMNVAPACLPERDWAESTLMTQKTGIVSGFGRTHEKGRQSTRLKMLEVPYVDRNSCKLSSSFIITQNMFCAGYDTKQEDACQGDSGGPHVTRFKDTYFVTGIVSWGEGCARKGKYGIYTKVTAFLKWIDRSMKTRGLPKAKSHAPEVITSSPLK
recombinant human factor Xa, sequence (P00742 41-179 partner limits assumed): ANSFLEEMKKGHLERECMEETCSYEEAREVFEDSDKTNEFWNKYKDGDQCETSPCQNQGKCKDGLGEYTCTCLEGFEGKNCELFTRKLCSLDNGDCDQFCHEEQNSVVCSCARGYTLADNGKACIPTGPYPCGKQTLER

SMILES | protective effect against SARS-CoV-2 infectivity (in words) (SARS-CoV-2 [1]; 100 µM) | Ki (bovine thrombin; [7]) [nM] | CC50 at 72 h [2] [nM] | VERO Cells Toxicity, Cytotoxicity at 100 µM (% of nonviable cells) (VERO cells; African green monkey) [%] | effect on SARS-CoV-2 infectivity (in words) (SARS-CoV-2 [3]) | Ki [4, 8] [nM] | residual, % of the starting concentration ([5]; 0 h) [%] | residual, % of the starting concentration ([5]; 1 h) [%] | residual, % of the starting concentration ([6]; 0 h) [%] | residual, % of the starting concentration ([6]; 1 h) [%] | residual, % of the starting concentration ([6]; 4 h) [%] | residual, % of the starting concentration ([6]; 12 h) [%] | residual, % of the starting concentration ([6]; 24 h) [%] | CC50 at 72 h [2, 9] [nM] | VERO Cells Toxicity, Cytotoxicity at 100 µM (% of nonviable cells) (VERO cells; XTT, mock-infected VERO cells) [%] | inhibition mechanism, fXa ([4]; time-dependent inhibition) | inhibition mechanism, thrombin (bovine thrombin; time-dependent inhibition) | other results
N=C(N)N1CCC(C(=O)Nc2ccccc2OCc2cc(-c3ccc(Cl)s3)on2)CC1 [Compound 1] | weak (nonsignificant) protective effect | 6820 | > 200000 | 20.3 ± 0.9 | did decrease viral infectivity | 2 | – | – | – | – | – | – | – | – | – | – | – | –
CC(C)N1CCC(C(=O)Nc2ccccc2OCc2cc(-c3ccc(Cl)s3)on2)CC1 [Compound 2] | did not show any ability to reduce the virus infectivity | – | > 200000 | 7.45 ± 0.24 | – | 0.3 | – | – | – | – | – | – | – | – | – | – | – | –
N=C(N)N1CCC(C(=O)Nc2cccc(OCc3cc(-c4ccc(Cl)s4)on3)c2)CC1 [Compound 3] | completely inhibited; also recorded: statistically significant protective effects; also recorded: totally block SARS-CoV-2 entry | – | – | – | did decrease viral infectivity; also recorded: best candidate against the viral infection | 15 | 100 | 95.8±1.0 | 100 | 98.8±0.5 | 98.1±1.5 | 97.5±0.5 | 97.9±1.0 | – | – | – | – | inhibition at 100 µM (SARS-CoV-2 [1]; read-out: inhibition of virus infectivity): 100%; inhibitory effects on SARS-CoV-2 infection (SARS-CoV-2 [1]; lower concentrations 3–50 µM, preincubation, VERO cells): ca. 30%; residual, % of the starting concentration ([5]; 4 h): 96.6±1.5%; residual, % of the starting concentration ([5]; 12 h): 93.2±2.5%; residual, % of the starting concentration ([5]; 24 h): 96.8±3.0%; hydrolytic degradation after 24 h ([5]; pooled blood human serum, 24 h): less than 10%; time dependence of inhibition constant (bovine thrombin; preincubation 0, 15, 30 min): did not show any significant time-dependent change in inhibition constant; CC50 at 72 h ([2]; 72 h, XTT, read-out: VERO Cells Toxicity, CC50): 155000 ± 16000 nM; hydrolytic degradation after 24 h ([6]; PBS pH 7.4, 24 h): less than 10%; Ki ([4]; Ki, factor Xa, time-dependent inhibition, incubation time 0 min): 20 ± 7 nM; Ki ([4]; Ki, factor Xa, time-dependent inhibition, incubation time 15 min): 17 ± 8 nM
[H]/N=C(/N)c1ccc(NCc2nc3cc(C(=O)N(CCC(=O)O)c4ccccn4)ccc3n2C)cc1 [Dabigatran, dabigatran] | did not show any effect; also recorded: did not show any ability to reduce the virus infectivity | – | – | – | – | – | – | – | – | – | – | – | – | > 200000 | 18.3 ± 0.8 | reversible inhibitors | – | inhibition mechanism, thrombin (bovine thrombin): reversible inhibitors
N=C(N)c1ccc2cc(OC(=O)c3ccc(N=C(N)N)cc3)ccc2c1 [Nafamostat, Nafamostat mesylate] | did not achieve statistically significant activity | 10 | – | – | – | – | 100 | 21.2±5.2 | 100 | 87.6±1.2 | 81.6±1.8 | 73.8±3.0 | 61.4±2.8 | > 200000 | 16.0 ± 0.8 | covalent inhibitor | covalent inhibitor | protective effect against SARS-CoV-2 infectivity (in words) (SARS-CoV-2 [1]; 100 µM, listed as NAF): weak (nonsignificant) protective effect; cellular monolayer preserved (SARS-CoV-2 [1]; 100 µM, preincubation, crystal violet staining): around 60%; cells with SARS-CoV-2 detected (SARS-CoV-2 [1]; 100 µM, preincubation, immunofluorescence): ~ 25%; activity against SARS-CoV-2 infection over scalar concentrations (in words) (SARS-CoV-2 [1]; 3–100 µM, preincubation): not to have statistically significant activity; inhibition at 100 µM (SARS-CoV-2 [1]; read-out: reduction of viral entry (inhibition)): ~20%; inhibition of SARS-CoV-2 infection (SARS-CoV-2 [1]; whole range of test concentrations 3–100 µM, VERO cells): 15–20%; residual, % of the starting concentration ([5]; 0.5 h): 45.9±4.3%; residual, % of the starting concentration ([5]; 2 h): 5.1±3.3%; half-life at 100 µM ([5]; pooled human serum, 37 °C, read-out: half-life in human pooled blood serum): 0.267 h; Ki (bovine thrombin; incubation time 0 min, read-out: Ki, thrombin, time-dependent inhibition): 77 nM; Ki (bovine thrombin; incubation time 15 min, read-out: Ki, thrombin, time-dependent inhibition): 13 nM; Ki (bovine thrombin; incubation time 30 min, read-out: Ki, thrombin, time-dependent inhibition): 5 nM; residual, % of the starting concentration ([6]; 0.5 h): 95.1±0.5%; residual, % of the starting concentration ([6]; 2 h): 84.9±1.0%; residual, % of the starting concentration ([6]; 8 h): 78.4±2.5%; half-life at 100 µM ([6]; phosphate buffer solution (PBS), PBS pH 7.4, 37 °C): ~45 h; Ki ([4]; incubation time 0 min, read-out: Ki, factor Xa, time-dependent inhibition): 363 ± 6 nM; Ki ([4]; incubation time 15 min, read-out: Ki, factor Xa, time-dependent inhibition): 340 ± 10 nM; Ki ([4]; incubation time 30 min, read-out: Ki, factor Xa, time-dependent inhibition): 225 ± 9 nM
O=C(NC[C@H]1CN(c2ccc(N3CCOCC3=O)cc2)C(=O)O1)c1ccc(Cl)s1 [Rivaroxaban, rivaroxaban] | did not show any effect; also recorded: did not show any ability to reduce the virus infectivity | – | – | – | – | – | – | – | – | – | – | – | – | > 200000 | 29.4 ± 0.8 | reversible inhibitors | reversible inhibitors | Ki (bovine thrombin): 12000 nM
